Measurements reported in US8288404B2, “Pyrrolidine GPR40 modulators” (Bristol-Myers Squibb Company, priority 2009, dated 2012).
Where a name gives a salt, the structure may show the parent alone.

Target: T1, hGPR40 (Homo sapiens, UniProt O14842)
T1 construct: 3xFLAG; expressed in transfected cells
Experiment: FDSS-Based Intracellular Calcium Assay (Human GRP40 In Vitro assay)
Settings: cell lines expressing GPR40, intracellular Ca2+ response, FDSS reader
Procedure: FDSS-Based Intracellular Calcium Assay
Cell lines expressing GPR40 are generated using the pDEST 3xflag gene expression system and are cultured in culture medium comprising the following components: F12 (Gibco #11765), 10% lipid deprived fetal bovine serum, 250 ug/ml zeocin and 500 ug/ml G418. To conduct the fluorescent imaging plate reader (FLIPR)-based calcium flux assay to measure intracellular Ca^2+ response, cells expressing GPR40 are plated on 384 well plates (BD Biocoat #356697) at a density of 20,000 cells/20 ul medium per well in phenol red and serum-free DMEM (Gibco #21063-029) and incubated overnight. Using BD kit #s 80500-310 or -301, the cells are incubated with 20 ul per well of Hank's buffered salt solution with 1.7 mM probenecid and Fluo-3 at 37° C. for 30 minutes. Compounds are dissolved in DMSO and diluted to desired concentrations with assay buffer and added to the cells as 3× solution (20 ul per well). Run fluorescence/luminescence reader FDSS (Hamamatsu) to read intracellular Ca^2+ response.
Table 1 below lists hGPR40 EC50 values measured for the following examples.

T1 sequence (O14842 whole entry): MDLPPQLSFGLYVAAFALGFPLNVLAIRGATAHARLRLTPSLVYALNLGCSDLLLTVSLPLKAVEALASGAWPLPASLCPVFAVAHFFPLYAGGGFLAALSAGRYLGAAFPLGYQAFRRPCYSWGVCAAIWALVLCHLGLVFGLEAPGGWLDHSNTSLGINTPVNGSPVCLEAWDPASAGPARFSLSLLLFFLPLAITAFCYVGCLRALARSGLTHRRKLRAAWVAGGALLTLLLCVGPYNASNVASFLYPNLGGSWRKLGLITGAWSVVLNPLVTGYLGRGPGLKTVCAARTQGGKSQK

EC50	Structure (SMILES)
2320 nM	CO[C@H]1C[C@@H](CC(=O)O)N(c2ccc(Oc3ccccc3C)cc2)C1 [Example 56, 2-((2S,4S)-4-methoxy-1-(4-(o-tolyloxy)phenyl)pyrrolidin-2-yl)acetic acid, TFA]
331 nM	O=C(O)C[C@@H]1CCCN1c1ccc(Cc2ccc(OCc3ccccc3)cc2)cc1 [Example 58, (S)-2-(1-(4-(4-(benzyloxy)benzyl)phenyl)pyrrolidin-2-yl)acetic acid, TFA]
314 nM	COc1ccc(F)c(-c2cccc(Oc3ccc(N4CCC[C@H]4CC(=O)O)cc3)c2C)c1 [Example 68, 2-((2S)-1-(4-(2′-fluoro-5′-methoxy-2-methylbiphenyl-3-yloxy)phenyl)pyrrolidin-2-yl)acetic acid, TFA]
4390 nM	Cc1ccccc1COc1cc(N2CCC[C@H]2CC(=O)O)ccn1 [Example 76, (S)-2-(1-(2-(2-methylbenzyloxy)pyridin-4-yl)pyrrolidin-2-yl)acetic acid, TFA]
4340 nM	Cc1ccc(COc2ccc(N3CCC[C@@H]3CC(=O)O)cc2)cc1 [Example 109]

Continued, compound first:

Structure (SMILES)	EC50
Cc1ccccc1Oc1ccc(N2CCC[C@H]2CC(=O)O)cc1F [Example 1, (S)-2-(1-(3-fluoro-4-(o-tolyloxy)phenyl)pyrrolidin-2-yl)acetic acid, TFA]	1630 nM
Cc1cccc(C)c1Oc1ccc(N2CCC[C@@H]2CC(=O)O)cc1 [Example 4, (R)-2-(1-(4-(2,6-dimethylphenoxy)phenyl)pyrrolidin-2-yl)acetic acid, HCl]	3800 nM
Cc1ccccc1Oc1ccc(N2CCC[C@H]2CC(=O)O)cc1 [Example 5, (S)-2-(1-(4-(o-tolyloxy)phenyl)pyrrolidin-2-yl)acetic acid, HCl]	65 nM
Cc1ccccc1Cc1ccc(N2C[C@@H](C(F)(F)F)C[C@H]2CC(=O)O)cc1 [Example 40, 2-((2S,4S)-1-(4-(2-methylbenzyl)phenyl)-4-(trifluoromethyl)pyrrolidin-2-yl)acetic acid, TFA]	61 nM
Cc1ccccc1Oc1ccc(N2C[C@@H](C(F)(F)F)C[C@H]2CC(=O)O)cc1 [Example 41, 2-((2S,4S)-1-(4-(o-tolyloxy)phenyl)-4-(trifluoromethyl)pyrrolidin-2-yl)acetic acid, TFA]	56 nM
Cc1ccccc1Sc1ccc(N2CCC[C@H]2CC(=O)O)cc1 [Example 44, (S)-2-(1-(4-(o-tolylthio)phenyl)pyrrolidin-2-yl)acetic acid, TFA]	352 nM
COc1ccc(Oc2ccc(N3C[C@@H](C(F)(F)F)C[C@H]3CC(=O)O)cc2)c(C)c1 [Example 50, 2-((2S,4S)-1-(4-(4-methoxy-2-methylphenoxy)phenyl)-4-(trifluoromethyl)pyrrolidin-2-yl)acetic acid, TFA]	55 nM
O=C(O)C[C@@H]1C[C@H](C(F)(F)F)CN1c1ccc(Oc2ccccc2C(F)(F)F)cc1 [Example 52, 2-((2S,4S)-4-(trifluoromethyl)-1-(4-(2-(trifluoromethyl)phenoxy)phenyl)pyrrolidin-2-yl)acetic acid, TFA]	305 nM
